Assay results published in patent US9745328B2, “Flap modulators” (JANSSEN PHARMACEUTICA NV, priority 2013, dated 2017).
Counter-ions that a name gives are not always drawn. Like-named read-outs stand apart in the source and are kept apart here.

Key:
[1] = target: human FLAP (Homo sapiens (Human), UniProt P20292); experiment: FLAP binding assay (HTRF format)
Outline: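 Reported data take the mean of two different plates carrying duplicate samples and use the HTRF ratio as the measured signal.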

[2] = tested on: leukotriene pathway in human whole blood (LTB4); experiment: Human whole blood assay (LTB4 levels after calcium ionophore A23187 stimulation); type: cell-based
Protocol: The ability of the compounds of the present invention to treat a FLAP-mediated disease and/or disorder, or associated symptoms or complications thereof, was determined using the following procedures. Binding assay data represent the average value obtained from two different assay plates, with samples run in duplicate on each plate. Human whole blood assay data represent a single replicate on an assay plate using whole blood from at least one healthy donor.
An in vitro cellular assay was performed using human whole blood collected in heparin-containing tubes, which was used to test the ability of compounds to modulate the leukotriene pathway in human whole blood. The blood was diluted 1:1 in RPMI medium, pre-incubated for 15 min at 37° Celsius with test compounds at various concentrations, and then stimulated with calcium ionophore, A23187 (7 μg/mL), for 30 min at 37° Celsius. The samples were then centrifuged and plasma was removed. The plasma was diluted in assay buffer and LTB4 levels were measured using a commercial kit (Enzo Life Sciences). The concentration of each compound that was required for half-maximal inhibition (modulation) of recombinant enzyme activity (IC50) was calculated by a 4-parameter equation using the program GraphPad Prism (GraphPad software).

[3] = Table 6 (additional runs), human FLAP wild type
[4] = Homo sapiens, Table 6 (additional runs); human whole blood diluted 1:1, A23187 stimulation; read-out: Human Whole Blood LTB4 IC50 1:1
[5] = human FLAP wild type, Table 6 (additional runs)
[6] = Homo sapiens, human whole blood diluted 1:1, A23187 stimulation; Table 6 (additional runs); read-out: Human Whole Blood LTB4 IC50 1:1

Sequence of human FLAP (P20292 whole entry): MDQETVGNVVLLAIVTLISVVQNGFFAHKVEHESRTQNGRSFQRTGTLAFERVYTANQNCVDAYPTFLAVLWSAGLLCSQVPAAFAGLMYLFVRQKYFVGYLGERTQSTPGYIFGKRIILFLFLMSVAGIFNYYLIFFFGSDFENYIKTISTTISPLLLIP

Ki [1, 3] | IC50 [2, 4] | Ki ([1]; human FLAP wild type, a calculated value of 0.000 indicates Ki less than 1 nM) | Ki [1, 5] | IC50 [2, 6] | Structure (SMILES)
0.7 nM | 3.3 nM |  |  |  | CC(C)N(CCO)S(=O)(=O)c1ccccc1-c1ccc(-c2cnc(N)cn2)c(F)c1 [Example 141, 4′-(5-Aminopyrazin-2-yl)-3′-fluoro-N-(2-hydroxyethyl)-N-(1-methylethyl)biphenyl-2-sulfonamide]
0.6 nM | 1.4 nM |  |  |  | Nc1cnc(-c2ccc(-c3ccccc3S(=O)(=O)N[C@H]3c4ccccc4C[C@@H]3O)cc2F)cn1 [Example 158]
0.8 nM | 1.3 nM |  |  |  | Nc1cnc(-c2ccc(-c3ccccc3S(=O)(=O)N[C@@H]3c4ccccc4C[C@H]3O)cc2F)cn1 [Example 159, 4′-(5-aminopyrazin-2-yl)-3′-fluoro-N-((1R,2R)-2-hydroxy-2,3-dihydro-1H-inden-1-yl)-[1,1′-biphenyl]-2-sulfonamide]
0.4 nM | 5.3 nM | < 1 nM |  |  | Nc1cnc(-c2ccc(-c3ccccc3S(=O)(=O)N[C@H]3c4ccccc4C[C@H]3O)cc2F)cn1 [Example 160, 4′-(5-aminopyrazin-2-yl)-3′-fluoro-N-((1S,2R)-2-hydroxy-2,3-dihydro-1H-inden-1-yl)-[1,1′-biphenyl]-2-sulfonamide]
2.3 nM | 69 nM |  |  |  | Nc1cnc(-c2ccc(-c3ccccc3S(=O)(=O)C3CCCC3)cc2F)cn1 [Example 195, 5-[2′-(Cyclopentylsulfonyl)-3-fluorobiphenyl-4-yl]pyrazin-2-amine]
7.8 nM | 96.3 nM |  |  |  | Nc1cnc(-c2ccc(-c3ccccc3S(=O)(=O)C3CCC3)cc2F)cn1 [Example 196, 5-[2′-(Cyclobutylsulfonyl)-3-fluorobiphenyl-4-yl]pyrazin-2-amine]
72.1 nM | 819 nM |  |  |  | CCCCCCS(=O)(=O)c1ccccc1-c1ccc(-c2cnc(N)cn2)c(F)c1 [Example 198, 5-[3-Fluoro-2′-(hexylsulfonyl)biphenyl-4-yl]pyrazin-2-amine]
0.8 nM | 5.3 nM |  |  |  | CN1CCN(S(=O)(=O)c2cc(C(F)(F)F)ccc2-c2ccc(-c3cnc(N)cn3)c(F)c2)CC1 [Example 212, 5-{3-Fluoro-2′-[(4-methylpiperazin-1-yl)sulfonyl]-4′-(trifluoromethyl)biphenyl-4-yl}pyrazin-2-amine]
0.9 nM | 5.6 nM |  |  |  | CC(C)(C)NS(=O)(=O)c1ccccc1-c1ccc(-c2cnc3[nH]ccc3c2)c(F)c1 [Example 367, N-tert-Butyl-3′-fluoro-4′-(1H-pyrrolo[2,3-b]pyridin-5-yl)biphenyl-2-sulfonamide]
0.8 nM | 6.6 nM |  |  |  | CCN(CC)S(=O)(=O)c1ccccc1-c1ccc(-c2cnc3[nH]ccc3n2)c(F)c1 [Example 373, N-Diethyl-3′-fluoro-4′-(5H-pyrrolo[2,3-b]pyrazin-2-yl)biphenyl-2-sulfonamide]
 |  |  | 4.3 nM | 4.4 nM | CC(C)(C)NS(=O)(=O)c1ccccc1-c1ccc(-c2cnc(N)c(N)n2)c(F)c1 [Example 428, N-tert-Butyl-4′-(5,6-diaminopyrazin-2-yl)-3′-fluorobiphenyl-2-sulfonamide]
 |  |  | 0.8 nM | 6.5 nM | CC(C)(C)NS(=O)(=O)c1ccccc1-c1ccc(-c2cnc(N)c(Cl)n2)c(F)c1 [Example 441, 4′-(5-Amino-6-chloropyrazin-2-yl)-N-tert-butyl-3′-fluorobiphenyl-2-sulfonamide]
 |  |  | 89.6 nM | 4180 nM | Nc1cnc(-c2ccc(-c3ccccc3OC(F)(F)F)cc2F)cn1 [Example 475, 5-[3-Fluoro-2′-(trifluoromethoxy)biphenyl-4-yl]pyrazin-2-amine]
 |  |  | 24.1 nM | 350 nM | Nc1cnc(-c2ccc(-c3ccccc3O)cc2F)cn1 [Example 476, 4′-(5-aminopyrazin-2-yl)-5′-fluorobiphenyl-2-ol]
 |  |  | 14.7 nM | 268 nM | Nc1cnc(-c2ccc(-c3ccccc3S(=O)(=O)c3ccccc3)cc2F)cn1 [Example 477, 5-[3-Fluoro-2′-(phenylsulfonyl)biphenyl-4-yl]pyrazin-2-amine]
 |  |  | 60.9 nM | 320 nM | CC(C)c1ccccc1-c1ccc(-c2cnc(N)cn2)c(F)c1 [Example 482, 5-[3-Fluoro-2′-(1-methylethyl)biphenyl-4-yl]pyrazin-2-amine]
 |  |  | 286 nM | 264 nM | Nc1ncc(-c2ccc(-c3ccc(C(F)(F)F)cc3C(=O)N3CCOCC3)cc2F)cn1 [Example 522, 5-[3-Fluoro-2′-(morpholin-4-ylcarbonyl)-4′-(trifluoromethyl)biphenyl-4-yl]pyrimidin-2-amine]

Ki [1, 3] | IC50 [2, 4] | Ki ([1]; human FLAP wild type, a calculated value of 0.000 indicates Ki less than 1 nM) | Ki [1, 5] | IC50 [2, 6] | Structure (SMILES)
 |  |  | 1.5 nM | 15.5 nM | Nc1cnc(-c2ccc(-c3ccccc3Oc3cc(N)ncn3)cc2F)cn1 [Example 535, 6-{[4′-(5-Aminopyrazin-2′yl)-3′-fluorobiphenyl-2-yl]oxy}pyrimidin-4′-amine]
 |  |  | 3.6 nM | 13.3 nM | CCNS(=O)(=O)c1cc(C(F)(F)F)ccc1-c1cnc(-c2cnc(N)nc2)c(F)c1 [Example 674, 2-[6-(2-Aminopyrimidin-5-yl)-5-fluoropyridin-3-yl]-N-ethyl-5-(trifluoromethyl)benzenesulfonamide]
 |  |  | 37 nM | 61 nM | CC(=O)N1CCC(S(=O)(=O)c2ncccc2-c2ccc(-c3cnc(N)cn3)c(F)c2)CC1 [Example 816, 1-((3-(4-(2-Aminopyrazin-5-yl)-3-fluorophenyl)pyridine-2-yl)sulfonyl)piperidin-1-yl)ethanone hydrogen chloride salt]
 |  |  | 5.7 nM | 9 nM | Nc1cnc(-c2ccc(-c3cccnc3S(=O)(=O)C3CC3)cc2F)cn1 [Example 829, 5-{4-[2-(Cyclopropylsulfonyl)pyridin-3-yl]-2-fluorophenyl}pyrazin-2-amine formic acid salt]
 |  |  | 149 nM | 72.5 nM | Nc1ncc(-c2ccc(-c3cccnc3S(=O)(=O)C3CCOCC3)cc2F)cn1 [Example 831, 5-{2-Fluoro-4-[2-(tetrahydro-2H-pyran-4-ylsulfonyl)pyridin-3-yl]phenyl}pyrimidin-2-amine formic acid salt]
 |  |  | 38.3 nM | 3900 nM | N#Cc1ncc(-c2ccccc2-c2ccc(-c3cnc(N)cn3)c(F)c2)cn1 [Example 849, 5-[4′-(5-Aminopyrazin-2-yl)-3′-fluorobiphenyl-2-yl]pyrimidine-2-carbonitrile]
 |  |  | 4 nM | 44.9 nM | Nc1ccc(-c2ccccc2-c2ccc(-c3cnc(N)cn3)c(F)c2)cn1 [Example 861, 5-[2′-(6-Aminopyridin-3-yl)-3-fluorobiphenyl-4-yl]pyrazin-2-amine]
 |  |  | 122 nM | 121 nM | Nc1cnc(-c2ccc(-c3ccccc3-c3cnc(N4CCNCC4)nc3)cc2F)cn1 [Example 862, 5-[3-Fluoro-2′-(2-piperazin-1-ylpyrimidin-5-yl)biphenyl-4-yl]pyrazin-2-amine]
 |  |  | 216 nM | 413 nM | NCCn1cc(-c2ccccc2-c2ccc(-c3cnc(N)cn3)c(F)c2)cn1 [Example 864, 5-{2′-[1-(2-Aminoethyl)-1H-pyrazol-4-yl]-3-fluorobiphenyl-4-yl]pyrazin-2-amine]
 |  |  | 96.2 nM | 192 nM | Nc1ccc(-c2ccccc2-c2ccc(-c3cnc(N)nc3)c(F)c2)cn1 [Example 865, 5-[2′-(6-Aminopyridin-3-yl)-3-fluorobiphenyl-4-yl]pyrimidin-2-amine]
 |  |  | 170 nM | 539 nM | CNc1ncc(-c2ccccc2-c2ccc(-c3cnc(N)nc3)c(F)c2)cn1 [Example 866, 5-[4′-(2-Aminopyrimidin-5-yl)-3′-fluorobiphenyl-2-yl]-N-methylpyrimidin-2-amine]
 |  |  | 246 nM | 793 nM | Nc1ncc(-c2ccc(-c3ccccc3-c3ccnc(N)n3)cc2F)cn1 [Example 867, 4-[4′-(2-Aminopyrimidin-5-yl)-3′-fluorobiphenyl-2-yl]pyrimidin-2-amine]
 |  |  | 21.5 nM | 345 nM | Nc1cnc(-c2ccc(-c3ccccc3-c3ccnc(N)n3)cc2F)cn1 [Example 868, 4-[4′-(5-Aminopyrazin-2-yl)-3′-fluorobiphenyl-2-yl]pyrimidin-2-amine]
 |  |  | 141 nM | 844 nM | COCCn1cc(-c2ccccc2-c2ccc(-c3cnc(N)cn3)c(F)c2)cn1 [Example 869, 5-{3-Fluoro-2′-[1-(2-methoxyethyl)-1H-pyrazol-4-yl]biphenyl-4-yl}pyrazin-2-amine]
 |  |  | 14.3 nM | 86.7 nM | Nc1cnc(-c2ccc(-c3ccccc3-c3cn[nH]c3)cc2F)cn1 [Example 870, 5-[3-Fluoro-2′-(1H-pyrazol-4-yl)biphenyl-4-yl]pyrazin-2-amine]
 |  |  | 25 nM | 371 nM | N#CCn1cc(-c2ccccc2-c2ccc(-c3cnc(N)cn3)c(F)c2)cn1 [Example 871, {4-[4′-(5-Aminopyrazin-2-yl)-3′-fluorobiphenyl-2-yl]-1H-pyrazol-1-yl}acetonitrile]
 |  |  | 8.3 nM | 53 nM | CNc1ncc(-c2ccccc2-c2ccc(-c3cnc(N)cn3)c(F)c2)cn1 [Example 872, 5-[4′-(5-Aminopyrazin-2-yl)-3′-fluorobiphenyl-2-yl]-N-methylpyrimidin-2-amine]
